Assays:
VEGF = test: Real-Time quantitative PCR of VEGF mRNA in HT1080 cells; type: cell-based, human; conditions: 24 h
Protocol: (§1) To evaluate the effect of heparanase inhibitors on the tumor transcription of genes encoding for proangiogenic factors, such as FGF1/2, VEGF, MMP-9, HSPE-1, the relative mRNA levels were analyzed by quantitative Real-Time Quantitative PCR. To perform the assay, HT1080 (human fibrosarcoma) cells were cultured in complete medium containing 10%FCS (fetal calf serum). Cells were plated in 24-well plates and treated at fixed concentration (i.e., highest non-toxic concentration) of test compounds. After 24 h, cells were detached, collected and total RNA extracted by RNeasy Mini Kit (QIAGEN). Following reverse transcription step, FGF1/2, VEGF, MMP-9, HSPE-1 mRNA levels, were quantified by qPCR using the advanced Universal SYBR Green Supermix (Bio Rad) and ABI PRISM 7900HT Thermal Cycler System (Perkin Elmer), according to the manufacturer's instructions. Appropriate no-RT and non-template controls were included in each 96-well PCR reaction, and dissociation analysis was performed at the end of each run to confirm the specificity of the reaction. Relative levels of RNA were calculated using the ddCt method. Standard curve and sample data were run in duplicate.
(§2) In the Table 5 a mean value is reported.

MMP-9 = test: Real-Time quantitative PCR of MMP-9 mRNA in HT1080 cells; type: cell-based, human; conditions: 24 h
Protocol: as §1, §2

FGF-2 = test: Real-Time quantitative PCR of FGF-2 mRNA in HT1080 cells; type: cell-based, human; conditions: 24 h
Protocol: as §1, §2

heparanase = target: T1, heparanase (Homo sapiens, UniProt Q9Y251); test: AGA*IA assay: colorimetric fondaparinux cleavage assay for heparanase inhibition (WST-1); type: biochemical; conditions: 2.5 nM heparanase, 100 µM fondaparinux, pH 5.0, 3 h at 37°C; class symbols
T1 sequence (Q9Y251 158-543 limits assumed): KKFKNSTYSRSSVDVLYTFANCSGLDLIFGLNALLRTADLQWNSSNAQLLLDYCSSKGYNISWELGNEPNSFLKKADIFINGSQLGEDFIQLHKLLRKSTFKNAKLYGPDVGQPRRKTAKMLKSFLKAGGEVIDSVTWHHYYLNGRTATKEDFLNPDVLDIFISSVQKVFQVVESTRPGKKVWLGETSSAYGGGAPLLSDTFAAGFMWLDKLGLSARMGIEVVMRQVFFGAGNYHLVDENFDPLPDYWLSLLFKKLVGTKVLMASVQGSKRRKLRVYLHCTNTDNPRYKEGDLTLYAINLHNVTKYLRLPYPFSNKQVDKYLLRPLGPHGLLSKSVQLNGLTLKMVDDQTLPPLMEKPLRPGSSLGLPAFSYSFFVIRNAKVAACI
T1 sequence (Q9Y251 36-109 limits assumed): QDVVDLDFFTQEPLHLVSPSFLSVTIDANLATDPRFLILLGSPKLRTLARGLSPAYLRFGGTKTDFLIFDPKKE
Protocol: All compounds were tested in a simple, accurate and robust microplate assay based on the cleavage of the synthetic heparin fragment, the pentasaccharide Fondaparinux (AGA*IA). This assay was originally developed by Hammond and coworkers [Hammond E, Li CP, Ferro V. Development of a colorimetric assay for heparanase activity suitable for kinetic analysis and inhibitor screening. Anal. Biochem. 396(1), 112-116 (2010)], where Fondaparinux corresponds to the methyl glycoside of the antithrombin III (ATIII)-activating pentasaccharide sequence of heparin. Fondaparinux is cleaved by heparanase to generate a reducing disaccharide, which can be quantitatively measured via a colorimetric or a fluorescence assay, the last by the fluorescent sensor polymer-H [Schiemann S, Lühn S, Alban S. Development of both colorimetric and fluorescence heparinase activity assays using fondaparinux as substrate. Anal. Biochem. 427(1), 82-89 (2012)].
The assay measures the appearance of the disaccharide product of heparanase-catalyzed fondaparinux cleavage colorimetrically using the tetrazolium salt WST-1. Assay was essentially performed as described with minor modifications. Briefly, NUNC ELISA 96-well plates were pre-treated with a solution of 4% BSA (bovin serum albumin) in phosphate-buffered saline containing 0.05% Tween 20 (PBST), for 2 h at 37°C, then washed three times with PBST, dried by tapping on paper towel and stored at -20°C. Before use, once again, the plates were washed with PBST.
Assay was carried out with 100 µl/well of assay solution containing 40 mM sodium acetate buffer (pH 5.0), 100 µM fondaparinux, 2.5 nM heparanase and serial dilutions of test compounds (tested in triplicate). Plates were sealed with adhesive tape and incubated, in the dark, for 3 h at 37°C, followed by development with 1.69 mM of the tetrazolium salt WST-1 solution in 0.1 M NaOH, for 1 h at 60°C. Then, the absorbance at 560 nm was measured through a microplate reader (Victor 3, Perkin Elmer).
Finally, the measurements were corrected by subtracting both the reagent background and the inner absorbance value of test compound.

[1] = test system: HT1080 (human fibrosarcoma); test: SRB Cell Cytotoxicity Assay, HT1080; type: cell-based; conditions: HT-1080, HT1080, 72h treatment, read-out: Concentration (µM) of test compounds at which the cell growth is inhibited by 50 %. HT1080
Description: SRB Cell Cytotoxicity Assay is an assay based upon the quantitative staining of cellular proteins by sulforhodamine B (SRB). This assay can be used for high-throughput drug screening (Vichai & Kirkitara, Nature Protocol. 2006, 1, 112). Sulforhodamine B is an anionic aminoxanthene dye that forms an electrostatic complex with the basic amino acid residues of proteins under moderately acid conditions, which provides a sensitive linear response.
To assess a putative antiproliferative activity of the selected compounds, HT1080 (human fibrosarcoma), U87MG (human glioblastoma astrocytoma) and U2OS (human osteosarcoma) cell lines were treated for 72h, in triplicate, with increasing concentrations of heparanase inhibitors. Inhibition of cell proliferation was then measured by the classical colorimetric SRB Cell Cytotoxicity assay. Absorbance was measured by spectrophotometer at a wavelength of 510 nm and cell proliferation was determined as percent with respect to control cells (cells treated with the vehicle alone). EC50 values were then determined by GraphPad Prism.

[2] = test system: U87MG (human glioblastoma astrocytoma); test: Cell adhesion assay on matrigel coated wells, U87MG; type: cell-based; conditions: test compound at 2.5 µM, percent of adhesion with respect to the control (100%)
Protocol: Cell surface, non-integrin molecules such as heparan sulfate proteoglycans (HSPGs) may be involved in the regulation of early adhesive stages of cell-ECM interactions. A cell adhesion assay has been employed to determine if the newly designed heparanase inhibitors were able to interfere with adhesion properties of cancer cells.
HT1080 (human fibrosarcoma) and U87MG (human glioblastoma astrocytoma) cells were treated for 18-20 h with test compounds in complete medium supplemented with 10% FCS. Then cells were collected, washed in complete medium, and added to matrigel coated wells in triplicate, at previously identified optimal seeding density, and incubated at 37 °C in complete medium for times ranging from 15 minutes to 4h, according to the cell line. After incubation, the wells were washed three times with serum-free medium and the remaining firmly attached cells were stained with crystal-violet 0.1%. Optical density was measured at 560 nm by Victor 3 (Perkin-Elmer) plate analyzer. Each experiment was repeated three times.
Table 3. […] In Invasion assay, data were expressed as the percent invasion (range) with respect to cell migration through uncoated insert membrane. In Adhesion assay, data were expressed as the percent of adhesion with respect to the control (100%). • Legend • ++: 50-90% • + : < 50% • - : Not Active

| Structure (SMILES) | Gene Expression (% mRNA vs. control) VEGF (VEGF; 10.0 uM) | Gene Expression (% mRNA vs. control) MMP-9 (MMP-9; 10.0 uM) | Gene Expression (% mRNA vs. control) FGF-2 (FGF-2; 10.0 uM) | IC50 (heparanase) | EC50 [1] | Adhesion Assay (%) U87MG [2] | Gene Expression (% mRNA vs. control) VEGF (VEGF; 2.5 uM) | Gene Expression (% mRNA vs. control) MMP-9 (MMP-9; 2.5 uM) | Gene Expression (% mRNA vs. control) FGF-2 (FGF-2; 2.5 uM) |
| --- | --- | --- | --- | --- | --- | --- | --- | --- | --- |
| O=C(O)CNC(=O)Cc1ccc2oc(-c3ccc(NC(=O)Nc4ccc(-c5nc6cc(CC(=O)NCC(=O)O)ccc6o5)cc4F)c(F)c3)nc2c1 [Compound 25, 2,2'-((2,2'-(((Carbonylbis(azanediyl))bis(3-fluoro-4,1-phenylene))bis(benzo[d]oxazole-2,5-diyl))bis(acetyl))bis(azanediyl))diacetic acid] | ∼ 63% | ∼ 65% | ∼ 68% | 50 to 490 nM | > 10 µM | 12.30% | – | – | – |
| O=C(O)Cc1ccc2oc(-c3ccc(NC(=O)Nc4ccc(-c5nc6cc(CC(=O)O)ccc6o5)cc4F)c(F)c3)nc2c1 [Compound 20, 2,2'-(((Carbonylbis(azanediyl))bis(3-fluoro-4,1-phenylene))bis(benzo[d]oxazole-2,5-diyl))diacetic acid] | – | – | – | 50 to 490 nM | > 10 µM | 64.90% | ∼ 72% | ∼ 70% | ∼ 88% |

Source: patent EP3381907A1, “SYMMETRICAL 2-AMINOPHENYL-BENZAZOLYL-5-ACETATE COMPOUNDS AND THEIR USE AS ANTI-HEPARANASE” (Leadiant Biosciences SA, priority 2017, dated 2018)
